Experimental data reported in article PMC11945486, “TAS1R2/TAS1R3 Single-Nucleotide Polymorphisms Affect Sweet Taste Receptor Activation by Sweeteners: The SWEET Project” (Nutrients, 2025).
Read-outs that look alike come from different tables or passages of the source. No end group written: not given here.

T1: human TAS1R2-WT/TAS1R3-L823F (Homo sapiens, UniProt Q7RTX0+Q8TE23, L823F)
T1 construct: expressed in transfected cells; host or cells: HEK293T stably expressing Gα16gust44
T1 sequence (Q8TE23 20-839): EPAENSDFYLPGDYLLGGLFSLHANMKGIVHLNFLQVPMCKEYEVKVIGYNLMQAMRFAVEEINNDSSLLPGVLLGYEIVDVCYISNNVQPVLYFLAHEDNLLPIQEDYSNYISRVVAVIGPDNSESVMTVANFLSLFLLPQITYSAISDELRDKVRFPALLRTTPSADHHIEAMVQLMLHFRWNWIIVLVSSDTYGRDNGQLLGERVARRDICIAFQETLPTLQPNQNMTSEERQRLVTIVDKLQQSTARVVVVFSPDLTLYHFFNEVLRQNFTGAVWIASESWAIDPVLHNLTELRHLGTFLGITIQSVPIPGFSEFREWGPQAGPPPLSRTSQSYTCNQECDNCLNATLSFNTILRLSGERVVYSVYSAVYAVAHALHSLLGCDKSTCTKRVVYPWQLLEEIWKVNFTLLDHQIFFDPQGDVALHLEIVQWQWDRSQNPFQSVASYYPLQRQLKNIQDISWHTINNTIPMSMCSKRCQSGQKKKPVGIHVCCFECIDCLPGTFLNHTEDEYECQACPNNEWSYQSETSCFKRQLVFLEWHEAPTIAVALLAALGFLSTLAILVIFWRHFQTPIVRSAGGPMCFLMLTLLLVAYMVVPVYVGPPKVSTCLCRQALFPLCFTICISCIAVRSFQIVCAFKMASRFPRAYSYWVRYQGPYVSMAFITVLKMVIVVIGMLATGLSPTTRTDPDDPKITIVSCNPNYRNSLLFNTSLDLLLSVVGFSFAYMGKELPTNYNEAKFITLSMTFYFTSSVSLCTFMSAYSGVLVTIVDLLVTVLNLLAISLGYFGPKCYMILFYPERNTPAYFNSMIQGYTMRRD
T1 sequence (Q7RTX0 21-852 L823F): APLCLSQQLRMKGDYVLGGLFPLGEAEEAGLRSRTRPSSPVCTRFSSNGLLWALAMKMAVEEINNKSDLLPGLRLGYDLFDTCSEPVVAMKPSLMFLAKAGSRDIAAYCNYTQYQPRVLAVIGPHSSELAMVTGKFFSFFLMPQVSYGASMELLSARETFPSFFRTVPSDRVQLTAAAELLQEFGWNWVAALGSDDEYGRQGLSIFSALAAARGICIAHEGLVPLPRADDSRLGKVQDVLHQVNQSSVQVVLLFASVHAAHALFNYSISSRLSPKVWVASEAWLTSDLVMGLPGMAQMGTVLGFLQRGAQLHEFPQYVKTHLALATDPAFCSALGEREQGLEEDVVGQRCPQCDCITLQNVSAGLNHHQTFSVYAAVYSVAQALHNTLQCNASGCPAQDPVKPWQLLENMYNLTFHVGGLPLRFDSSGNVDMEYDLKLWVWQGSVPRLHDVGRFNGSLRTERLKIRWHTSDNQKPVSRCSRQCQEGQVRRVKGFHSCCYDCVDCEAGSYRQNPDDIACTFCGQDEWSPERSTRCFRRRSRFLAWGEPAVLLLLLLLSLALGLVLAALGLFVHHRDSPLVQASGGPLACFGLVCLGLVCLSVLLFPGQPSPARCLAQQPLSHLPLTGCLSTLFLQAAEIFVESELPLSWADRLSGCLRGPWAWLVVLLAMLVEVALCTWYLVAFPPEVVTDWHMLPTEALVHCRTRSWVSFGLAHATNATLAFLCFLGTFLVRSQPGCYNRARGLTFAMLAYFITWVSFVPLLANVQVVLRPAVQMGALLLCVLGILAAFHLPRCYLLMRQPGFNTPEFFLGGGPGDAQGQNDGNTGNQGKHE

B1: thaumatin (protein)
chain: ATFEIVNRCSYTVWAAASKGDAALDAGGRQLNSGESWTINVEPGTKGGKIWARTDCYFDDSGSGICKTGDCGGLLRCKRFGRPPTTLAEFSLNQYGKDYIDISNIKGFNVPMDFSPTTRGCRGVRCAADIVGQCPAKLKAPGGGCNDACTVFQTSEYCCTTGKCGPTEYSRFFKRLCPDAFSYVLDKPTTVTCPGSSNYRVTFCPTA
modifications: Eight disulfides
notes: sweet-tasting plant protein, E957

Molecular target: T1, human TAS1R2-WT/TAS1R3-L823F
Test: Calcium mobilisation assay, TAS1R2-WT with TAS1R3 variant L823F
Type: cell-based
Settings: for Max ΔF/F0: maximal signal amplitude
Description: The coding sequences for TAS1R2 and TAS1R3 were commercially synthesised, and the human codon was optimised for expression in human cells. The coding sequences of human TAS1R2 and TAS1R3 were subcloned and inserted into the mammalian expression vectors pcDNA6/myc-HisA and pcDNA4/myc-HisA (Invitrogen; Thermo Fisher Scientific; Illkirch, France) between the EcoRI and NotI restriction sites, generating the plasmids pcDNA6-TAS1R2 and pcDNA4-TAS1R3, respectively. To increase protein expression in mammalian cells, an upstream start codon was used, which was a sequence called MAX, corresponding to the QBI SP163 element also described in pcDNA4-HisMax (Invitrogen; Thermo Fisher Scientific; Illkirch, France). To measure the expression level of the receptor by immunohistochemistry, we used the FLAG sequence ([…]) in the C-terminal position, which encodes the FLAG tag epitope. SNP variants of TAS1R2 and TAS1R3 were constructed based on […], respectively, using site-directed mutagenesis (Genewiz; Leipzig, Germany).
The HEK293T cells were kindly provided by Jay P. Slack (Givaudan Flavors Corporation; Cincinnati, OH, USA). HEK293T cells stably transfected with Gα16gust44 [43, 67] were seeded in poly-D-lysine-coated clear-bottom black 96-well plates (0.35 × 10^5 cells/well) in high-glucose DMEM supplemented with 2 mM GlutaMAX, 10% dialysed foetal bovine serum with penicillin/streptomycin and G418 (400 μg/mL) at 37 °C and 6.3% CO2 in a humidified atmosphere as previously reported. […] As a negative control, HEK293T cells were mock-transfected with the empty expression vector. After a further 24 h of incubation, the HEK293T cells were washed with C1 buffer (130 mM NaCl, 5 mM KCl, 10 mM HEPES pH 7.4 and 2 mM CaCl2). The 96-well plates containing the cells were then stimulated with sweet-tasting compounds. […] Different concentration ranges were tested depending on the sweet compound injected. The Ca^2+ changes were expressed as fractional changes in fluorescent light intensity: ΔF/F = (F − F0)/F0, where F was the fluorescent light intensity at each point, and F0 was the value of emitted fluorescent light prior to stimulus application. To calculate dose–response relationships, the changes in fluorescence upon stimulus application were averaged, mock-subtracted and baseline-corrected. The dose–response data obtained were adjusted using a 4-parameter logistic equation. The half-maximal effective concentrations (EC50 values) and maximal signal amplitudes were calculated using SigmaPlot software (version 15.0) (Systat Software; San Jose, CA, USA).
For in vitro calcium mobilisation assay performed on hTAS1R2-SNPs, hTAS1R3-SNPs and mTAS1R3-I60T, 6 to 7 concentrations were tested for each sweet compound, plus buffer alone. All concentration–receptor combinations were measured in duplicate, and each experiment was repeated at least 4 times (8 wells/concentration). Results were expressed for each concentration as ΔF/F mean ± SEM and represented as dose–response curves.

Molecule | R1 = Variant EC50/WT EC50 | Max ΔF/F0 | EC50 (read-out: EC50) [µM] | EC50 (brazzein) [µg/mL]
CC1=CC(=O)NS(=O)(=O)O1 [Acesulfame K, acesulfame K] | 0.6 | 0.33 ± 0.01 | 376 ± 34 | –
O=S(=O)(O)NC1CCCCC1 [Cyclamate, cyclamate] | – | – | 1370 ± 34 | –
C[C@H](CC[C@@H](O[C@@H]1O[C@H](CO[C@@H]2O[C@H](CO)[C@@H](O)[C@H](O)[C@H]2O)[C@@H](O)[C@H](O)[C@H]1O[C@@H]1O[C@H](CO)[C@@H](O)[C@H](O)[C@H]1O)C(C)(C)O)[C@H]1CC[C@@]2(C)[C@@H]3CC=C4[C@@H](CC[C@H](O[C@@H]5O[C@H](CO[C@@H]6O[C@H](CO)[C@@H](O)[C@H](O)[C@H]6O)[C@@H](O)[C@H](O)[C@H]5O)C4(C)C)[C@]3(C)[C@H](O)C[C@]12C [Mogroside V, mogroside V] | 0.7 | 1.18 ± 0.04 | 22 ± 1.8 | –
COc1ccc(CCC(=O)c2c(O)cc(O[C@@H]3O[C@H](CO)[C@@H](O)[C@H](O)[C@H]3O[C@@H]3O[C@@H](C)[C@H](O)[C@@H](O)[C@H]3O)cc2O)cc1O [NHDC, neohesperidin dihydrochalcone] | 0.9 | 1.00 ± 0.01 | 43.1 ± 14.7 | –
COC(=O)[C@H](Cc1ccccc1)NC(=O)[C@H](CC(=O)O)NCCC(C)(C)C [Neotame] | 0.9 | 0.76 ± 0.01 | 1.1 ± 0.06 | –
C=C(C)[C@@H]1CC=C(/C=N/O)CC1 [Perillartine, perillartine] | 0.7 | 1.39 ± 0.15 | 10 ± 3.1 | –
C=C1C[C@@]23CC[C@H]4[C@@](C)(CCC[C@@]4(C)C(=O)O[C@@H]4O[C@H](CO)[C@@H](O)[C@H](O[C@@H]5O[C@H](CO)[C@@H](O)[C@H](O)[C@H]5O)[C@H]4O[C@@H]4O[C@H](CO)[C@@H](O)[C@H](O)[C@H]4O)[C@@H]2CC[C@]1(O[C@@H]1O[C@H](CO)[C@@H](O)[C@H](O[C@@H]2O[C@H](CO)[C@@H](O)[C@H](O)[C@H]2O)[C@H]1O[C@@H]1O[C@H](CO)[C@@H](O)[C@H](O)[C@H]1O)C3 [Rebaudioside M, rebaudioside M] | 0.8 | 1.35 ± 0.09 | 33.2 ± 5.4 | –
OC[C@H]1O[C@H](O[C@]2(CCl)O[C@H](CCl)[C@@H](O)[C@@H]2O)[C@H](O)[C@@H](O)[C@H]1Cl [Sucralose] | 1.2 | 0.84 ± 0.02 | 134 ± 8 | –
brazzein (QDKCKKVYENYPVSKCQLANQCNYDCKLDKHARSGECFYDEKRNLQCICDYCEY; ends and bridges not checked; cysteine pairing not given here; UniProt P56552 1-54, looked up) [sweet-tasting protein obtained by recombinant production using the yeast Pichia pastoris] | 0.7 | 0.98 ± 0.05 | – | 78.9 ± 14.2
thaumatin | 0.7 | 0.71 ± 0.04 | – | –
B1 | – | – | 7.4 ± 1.1 | –
